This passage reports ring closure, isolated yield results from paper PMC6385813, “Macrocyclisation of small peptides enabled by oxetane incorporation” (Chemical Science, 2019).

The data set in a line: head-to-tail lactamisation of free linear peptides (H-/-OH), DEPBT (2 equiv), iPr2EtN (2 equiv). Particulars: DMF, 1.0 mM, 25.0 °C.

In the case of `CC(C)C[C@@H]1NC(=O)[C@H]2CCCN2C(=O)CNC2(CNC1=O)COC2` [H-D-Pro-Leu-GOx-Gly-OH], where the note is “from CC(C)C[C@H](NC(=O)[C@H]1CCCN1)C(=O)NCC1(NCC(=O)O)COC1, 12-membered ring, 48.0 h”, the ring closure, isolated yield was 54%.
For `CC(C)C[C@@H]1NC(=O)[C@H](Cc2c[nH]c3ccccc23)NC(=O)CNC(=O)[C@H](C)NC1=O` [H-Trp-Leu-Ala-Gly-OH], the ring closure, isolated yield (from CC(C)C[C@H](NC(=O)[C@@H](N)Cc1c[nH]c2ccccc12)C(=O)N[C@@H](C)C(=O)NCC(=O)O, 12-membered ring, 48.0 h) stood at 21%.
On to `CC(C)C[C@@H]1NC(=O)[C@H](Cc2ccc(O)cc2)NC(=O)[C@H](C)NC(=O)CCNC(=O)[C@H](C)NC1=O` [H-Leu-Ala-βAla-Ala-Tyr-OH], for which the ring closure, isolated yield (from CC(C)C[C@H](N)C(=O)N[C@@H](C)C(=O)NCCC(=O)N[C@@H](C)C(=O)N[C@@H](Cc1ccc(O)cc1)C(=O)O, 16-membered ring, 24.0 h) came to 39%.
With `CC(C)C[C@@H]1NC(=O)[C@H](Cc2ccc(O)cc2)NC(=O)[C@H](C)NC2(CNC(=O)[C@H](C)NC1=O)COC2` [H-GOx-Ala-Tyr-Leu-Ala-OH], the ring closure, isolated yield (from CC(C)C[C@H](NC(=O)[C@H](Cc1ccc(O)cc1)NC(=O)[C@H](C)NC1(CN)COC1)C(=O)N[C@@H](C)C(=O)O, 15-membered ring, 24.0 h) was determined as 43%.
With `CC(C)C[C@@H]1NC(=O)[C@H](Cc2ccc(O)cc2)NC(=O)[C@H](C)NC(C)(C)CNC(=O)[C@H](C)NC1=O` [H-Leu-Ala-NHCH2C(Me)2-Ala-Tyr-OH], the ring closure, isolated yield (from CC(C)C[C@H](N)C(=O)N[C@@H](C)C(=O)NCC(C)(C)N[C@@H](C)C(=O)N[C@@H](Cc1ccc(O)cc1)C(=O)O, 15-membered ring, 24.0 h) is 32%.
On to `CC(C)C[C@@H]1NC(=O)[C@H](CC(=O)OC(C)(C)C)NC(=O)CNC2(CNC1=O)COC2` [H-Asp(tBu)-Leu-GOx-Gly-OH], for which the ring closure, isolated yield (from CC(C)C[C@H](NC(=O)[C@@H](N)CC(=O)OC(C)(C)C)C(=O)NCC1(NCC(=O)O)COC1, 12-membered ring, 48.0 h) was 49%.
For the compound `CC(C)C[C@@H]1NC(=O)[C@H](Cc2c[nH]c3ccccc23)NC(=O)CNC2(CNC1=O)COC2` [H-Trp-Leu-GOx-Gly-OH], the ring closure, isolated yield (from CC(C)C[C@H](NC(=O)[C@@H](N)Cc1c[nH]c2ccccc12)C(=O)NCC1(NCC(=O)O)COC1, 12-membered ring, 48.0 h) was 65%.
For the compound `CC(C)C[C@@H]1NC(=O)[C@H](Cc2ccc(O)cc2)NC(=O)[C@H](C)NC2(CNC(=O)[C@H](C)NC1=O)COC2` [H-Leu-Ala-GOx-Ala-Tyr-OH], for the setting “from CC(C)C[C@H](N)C(=O)N[C@@H](C)C(=O)NCC1(N[C@@H](C)C(=O)N[C@@H](Cc2ccc(O)cc2)C(=O)O)COC1, 15-membered ring, 24.0 h”, the ring closure, isolated yield stood at 51%.
Turning to `CC(C)C[C@@H]1NC(=O)[C@H](Cc2ccc(O)cc2)NC(=O)[C@@H]2CCCN2C(=O)CNC(=O)[C@H](C)NC1=O` [H-Leu-Ala-Gly-Pro-Tyr-OH], the ring closure, isolated yield (from CC(C)C[C@H](N)C(=O)N[C@@H](C)C(=O)NCC(=O)N1CCC[C@H]1C(=O)N[C@@H](Cc1ccc(O)cc1)C(=O)O, 15-membered ring) was 13%.
Regarding `CC(C)C[C@@H]1NC(=O)[C@H](Cc2ccc(O)cc2)NC(=O)[C@@H]2CCCN2C2(CNC(=O)[C@H](C)NC1=O)COC2` [H-Leu-Ala-GOx-Pro-Tyr-OH], the ring closure, isolated yield (from CC(C)C[C@H](N)C(=O)N[C@@H](C)C(=O)NCC1(N2CCC[C@H]2C(=O)N[C@@H](Cc2ccc(O)cc2)C(=O)O)COC1, 15-membered ring, 48.0 h) turned out to be 48%.
Take `CC(C)C[C@@H]1NC(=O)[C@H](Cc2ccc(O)cc2)NC(=O)[C@H](C)NCCNC(=O)[C@H](C)NC1=O` [H-Leu-Ala-NHCH2CH2-Ala-Tyr-OH]: the ring closure, isolated yield (from CC(C)C[C@H](N)C(=O)N[C@@H](C)C(=O)NCCN[C@@H](C)C(=O)N[C@@H](Cc1ccc(O)cc1)C(=O)O, 15-membered ring, 24.0 h) is 28%.
For the compound `CC(C)C[C@@H]1NC(=O)[C@H](Cc2ccc(O)cc2)NC(=O)[C@H](C)NC(=O)CNC(=O)[C@H](C)NC1=O` [H-Tyr-Leu-Ala-Gly-Ala-OH], the ring closure, isolated yield (from CC(C)C[C@H](NC(=O)[C@@H](N)Cc1ccc(O)cc1)C(=O)N[C@@H](C)C(=O)NCC(=O)N[C@@H](C)C(=O)O, 15-membered ring) is 24%.
For the compound `CC(C)C[C@@H]1NC(=O)[C@H](Cc2ccc(O)cc2)NC(=O)[C@H](C)NC(=O)CNC(=O)[C@H](C)NC1=O` [H-Leu-Ala-Gly-Ala-Tyr-OH], under “from CC(C)C[C@H](N)C(=O)N[C@@H](C)C(=O)NCC(=O)N[C@@H](C)C(=O)N[C@@H](Cc1ccc(O)cc1)C(=O)O, 15-membered ring, 24.0 h”, the ring closure, isolated yield is 31%.
In the case of `CC(C)C[C@@H]1NC(=O)[C@H](Cc2ccc(O)cc2)NC(=O)[C@H](C)NC(=O)C(C)(C)NC(=O)[C@H](C)NC1=O` [H-Leu-Ala-Aib-Ala-Tyr-OH], where the note is “from CC(C)C[C@H](N)C(=O)N[C@@H](C)C(=O)NC(C)(C)C(=O)N[C@@H](C)C(=O)N[C@@H](Cc1ccc(O)cc1)C(=O)O, 15-membered ring, 24.0 h”, the ring closure, isolated yield was found to be 29%.
With `CC(C)C[C@@H]1NC(=O)[C@H](Cc2ccc(O)cc2)NC(=O)[C@H](C)NC(=O)CNC(=O)[C@H](C)NC1=O` [H-Ala-Gly-Ala-Tyr-Leu-OH], the ring closure, isolated yield (from CC(C)C[C@H](NC(=O)[C@H](Cc1ccc(O)cc1)NC(=O)[C@H](C)NC(=O)CNC(=O)[C@H](C)N)C(=O)O, 15-membered ring, 24.0 h) is 40%.
On to `CC(C)C[C@@H]1NC(=O)[C@H](Cc2ccc(O)cc2)NC(=O)[C@H](C)NC2(CNC(=O)[C@H](C)NC1=O)COC2` [H-Ala-GOx-Ala-Tyr-Leu-OH], for which, for the setting “from CC(C)C[C@H](NC(=O)[C@H](Cc1ccc(O)cc1)NC(=O)[C@H](C)NC1(CNC(=O)[C@H](C)N)COC1)C(=O)O, 15-membered ring, 24.0 h”, the ring closure, isolated yield amounted to 57%.
Turning to `CC(C)C[C@@H]1NC(=O)[C@H](Cc2c[nH]c3ccccc23)NC(=O)CNC(=O)CNC1=O` [H-Trp-Leu-Gly-Gly-OH], the ring closure, isolated yield (from CC(C)C[C@H](NC(=O)[C@@H](N)Cc1c[nH]c2ccccc12)C(=O)NCC(=O)NCC(=O)O, 12-membered ring, 48.0 h) worked out at 15%.
Take `CC(C)C[C@@H]1NC(=O)[C@H](Cc2ccc(O)cc2)NC(=O)[C@H](C)NC(=O)CN(C)C(=O)[C@H](C)NC1=O` [H-Leu-Ala-Sar-Ala-Tyr-OH]: for the setting “from CC(C)C[C@H](N)C(=O)N[C@@H](C)C(=O)N(C)CC(=O)N[C@@H](C)C(=O)N[C@@H](Cc1ccc(O)cc1)C(=O)O, 15-membered ring, 24.0 h”, the ring closure, isolated yield was 36%.
As for `CC(C)C[C@@H]1NC(=O)[C@H](Cc2c[nH]c3ccccc23)NC(=O)CNC2(COC2)[C@H](C)NC1=O` [H-Trp-Leu-AOx-Gly-OH], under “from CC(C)C[C@H](NC(=O)[C@@H](N)Cc1c[nH]c2ccccc12)C(=O)N[C@@H](C)C1(NCC(=O)O)COC1, 12-membered ring, 48.0 h”, the ring closure, isolated yield worked out at 50%.
`CC(C)C[C@@H]1NC(=O)[C@H](Cc2ccccc2)NC(=O)[C@H]([C@@H](C)OC(C)(C)C)NC2(CNC(=O)[C@H](C(C)C)NC(=O)[C@H](Cc3ccc(OC(C)(C)C)cc3)NC1=O)COC2` [H-Leu-Tyr(tBu)-Val-GOx-Thr(tBu)-Phe-OH]: the ring closure, isolated yield (from CC(C)C[C@H](N)C(=O)N[C@@H](Cc1ccc(OC(C)(C)C)cc1)C(=O)N[C@H](C(=O)NCC1(N[C@H](C(=O)N[C@@H](Cc2ccccc2)C(=O)O)[C@@H](C)OC(C)(C)C)COC1)C(C)C, 18-membered ring, 48.0 h) was 58%.
Consider `CC(C)C[C@@H]1NC(=O)[C@H](Cc2ccc(O)cc2)NC(=O)[C@H](C)NC(=O)CNC(=O)[C@H](C)NC1=O` [H-Gly-Ala-Tyr-Leu-Ala-OH], for which the ring closure, isolated yield (from CC(C)C[C@H](NC(=O)[C@H](Cc1ccc(O)cc1)NC(=O)[C@H](C)NC(=O)CN)C(=O)N[C@@H](C)C(=O)O, 15-membered ring) was found to be 30%.
For the compound `CC(C)C[C@@H]1NC(=O)[C@H](CC(=O)OC(C)(C)C)NC(=O)CNC(=O)CNC1=O` [H-Asp(tBu)-Leu-Gly-Gly-OH], the ring closure, isolated yield (from CC(C)C[C@H](NC(=O)[C@@H](N)CC(=O)OC(C)(C)C)C(=O)NCC(=O)NCC(=O)O, 12-membered ring, 48.0 h) was 14%.
For `CC(C)C[C@@H]1NC(=O)[C@H](Cc2ccc(O)cc2)NC(=O)[C@H](C)NC2(CNC(=O)[C@H](C)NC1=O)COC2` [H-Tyr-Leu-Ala-GOx-Ala-OH], the ring closure, isolated yield (from CC(C)C[C@H](NC(=O)[C@@H](N)Cc1ccc(O)cc1)C(=O)N[C@@H](C)C(=O)NCC1(N[C@@H](C)C(=O)O)COC1, 15-membered ring, 24.0 h) was 31%.
In the case of `CC(C)C[C@@H]1NC(=O)[C@H]2CCCN2C(=O)CNC(=O)CNC1=O` [H-D-Pro-Leu-Gly-Gly-OH], the ring closure, isolated yield (from CC(C)C[C@H](NC(=O)[C@H]1CCCN1)C(=O)NCC(=O)NCC(=O)O, 12-membered ring, 48.0 h) came out at 0%.
